The source of these data is patent US20100210635A1, “RENIN INHIBITORS” (Takeda Pharmaceutical Company Limited, priority 2006, published 2010).

For orientation: IC50 means the concentration needed to halve the response being measured.

A value given as a limit tells only on which side of the number the result lay.

The target of one assay is T1, Recombinant human renin (Homo sapiens, UniProt P00797).
T1 construct: isolate the active form (residues 67-406); made in house; host or cells: FreeStyle 293-F cells (transient expression of pcDNA3.1(+)/hREN)
T1 sequence (P00797 67-406): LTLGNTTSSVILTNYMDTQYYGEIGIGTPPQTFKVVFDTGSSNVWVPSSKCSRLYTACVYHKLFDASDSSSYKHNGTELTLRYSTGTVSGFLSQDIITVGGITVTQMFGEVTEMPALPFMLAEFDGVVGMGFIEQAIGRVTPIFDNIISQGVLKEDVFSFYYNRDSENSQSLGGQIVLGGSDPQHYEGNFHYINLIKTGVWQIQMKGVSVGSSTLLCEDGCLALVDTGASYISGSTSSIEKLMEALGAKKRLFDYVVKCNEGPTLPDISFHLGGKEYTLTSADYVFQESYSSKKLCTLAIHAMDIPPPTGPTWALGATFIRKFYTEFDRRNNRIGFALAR
Nature of the assay: In vitro enzymatic activity assay of Renin inhibitors (fluorescence, QXL520/HiLyteFluo488 peptide substrate). It is filed as biochemical.
Details: not given
The source says:
Test compounds in varying concentrations may be reacted with recombinant human renin in the presence of substrate, e.g., QXL520-γ-Abu-Ile-His-Pro-Phe-His-Leu-Val-Ile-His-Thr-Lys (HiLyteFluo488)-Arg-OH (Anaspec, San Jose, Calif.). The reaction can be followed kinetically using fluorescence (excitation λ=485 nm; emission λ=538 nm). Inhibition constants (IC50) may be calculated by non-linear curve fitting of the compound concentrations and fluorescence intensities to the standard IC50 equation.
Solutions of test compounds in varying concentrations (<2 mM final concentration) are prepared in dimethyl sulfoxide (DMSO) and then diluted into assay buffer comprising 50 mM Hepes, 1 mM EDTA, 1 mM DTT, 0.1 mg/ml BSA, 0.01% Brij35, pH 7.4. Alternatively, the assay can be performed with a high BSA concentration, wherein the buffer contains an additional 2% BSA.
Recombinant human renin (3 nM final concentration) is added to the dilutions and pre-incubated with the compounds for 10 minutes at 37° C. As described in Examples A-C above, human Renin can be obtained by expressing preprorenin (residue 1-406) in mammalian cells, treating the prorenin (residues 24-406) contained in the culture supernatant with trypsin, and isolate the active form (residues 67-406). After pre-incubation, the reaction is initiated with 1 μM of substrate QXL520-γ-Abu-Ile-His-Pro-Phe-His-Leu-Val-Ile-His-Thr-Lys (HiLyteFluo488)-Arg-OH (Anaspec, San Jose, Calif.). The final DMSO in the assay is 5%. The total volume of the reaction mixture is 20 μL, which can be placed on Greiner 384-well small volume plates.
Renin activity may be determined via fluorescence (excitation λ=485 nm; emission λ=538 nm), e.g., on a Molecular Devices SPECTROmax GEMINI XPS. The fluorescence intensity is determined upon the addition of substrate and determined again after incubation at 37° C. for one hour. The fluorescence intensity of a blank (no inhibition) using vehicle alone is also determined. Renin activity is linearly proportional to the change in fluorescence observed (final−initial).
The percent inhibition of Renin at a given compound concentration is defined as:
100%×[1−(Fcompound/Fblank)]
where Fcompound is the observed fluorescence at a given concentration of test compound and Fblank is the observed fluorescence in the presence of vehicle alone.
The pIC50 value (negative log of the molar concentration of the compound that produces 50% inhibition) of a test compound is calculated by non-linear least squares curve fitting of the equation: […]
to percent inhibition versus compound concentration. The 50% inhibitory concentration (IC50) of a test compound is calculated by raising 10 to the negative pIC50 (10^−pIC50).
With `CC(=O)NCCc1ccccc1Oc1ccccc1CCC(=O)N1CCNC[C@H]1Cc1ccc(OC(=O)N2CCOCC2)cc1` [Example 80, (R)-4-((1-(3-(2-(2-(2-acetamidoethyl)phenoxy)phenyl)propanoyl)piperazin-2-yl)methyl)phenyl morpholine-4-carboxylate], the IC50 was 500 to 5000 nM. Consider `O=C(Oc1ccc(C[C@@H]2CNCCN2C(=O)CCc2ccccc2Oc2ccccc2)cc1)N1CCOCC1` [Example 73, (R)-4-((1-(3-(2-phenoxyphenyl)propanoyl)piperazin-2-yl)methyl)-phenyl morpholine-4-carboxylate], for which the IC50 fell in the range of 500 to 5000 nM.

Regarding `CN1CCN(C(=O)Oc2ccc(C[C@@H]3CNCCN3C(=O)CCc3ccccc3Oc3ccccc3)cc2)CC1` [Example 72, (R)-4-((1-(3-(2-phenoxyphenyl)propanoyl)piperazin-2-yl)methyl)-phenyl 4-methylpiperazine-1-carboxylate], the IC50 was in the range of 500 to 5000 nM.

The same assay, now with this note: recombinant human renin 3 nM, 1 μM substrate, 37° C., pH 7.4; values given as ranges; read-out: IC50 of Exemplified Compounds Against Renin.
For `O=C(NC1(CC(=O)N2CCNC[C@H]2Cc2ccccc2)CCCCC1)c1ccccc1` [Example 64, (R)—N-(1-(2-(2-benzylpiperazin-1-yl)-2-oxoethyl)cyclohexyl)benzamide], the IC50 was 5000 to 50000 nM. As to `O=C(CCC(=O)N1CCNC[C@H]1Cc1ccccc1)N(c1ccccc1)c1ccccc1` [Example 60, (R)-4-(2-benzylpiperazin-1-yl)-4-oxo-N,N-diphenylbutanamide], the IC50 was 500 to 5000 nM.

For the molecule `O=C(COc1cccc2ccccc12)N1CCNC[C@H]1Cc1ccccc1` [Example 15, (R)-1-(2-Benzylpiperazin-1-yl)-2-(naphthalen-1-yloxy)ethanone], the concentration for half-maximal inhibition (IC50) is 5000 to 50000 nM. Still for that read-out and setting: in the case of `O=S(=O)(CCc1ccccc1)N1CCNC[C@H]1Cc1ccccc1` [Example 12, (R)-2-Benzyl-1-(phenethylsulfonyl)piperazine] it was 5000 to 50000 nM; in that of `CC(=O)NCc1cccnc1Oc1ccccc1CCC(=O)N1CCNC[C@H]1Cc1ccccc1` [Example 38, (R)—N-((2-(2-(3-(2-benzylpiperazin-1-yl)-3-oxopropyl)phenoxy)-pyridin-3-yl)methyl)acetamide], 500 to 5000 nM; in that of `O=C(CCC(=O)N1CCNC[C@H]1Cc1ccccc1)c1ccccc1` [Example 5, (R)-1-(2-Benzylpiperazin-1-yl)-4-phenylbutane-1,4-dione], over 50000 nM. Same read-out and setting: in the case of `NC(=O)CCc1ccccc1Oc1ccccc1CCC(=O)N1CCNC[C@H]1Cc1ccccc1` [Example 83, (R)-3-(2-(2-(3-(2-benzylpiperazin-1-yl)-3-oxopropyl)phenoxy)phenyl)propanamide] it was under 500 nM; in that of `COC(=O)CCc1ccccc1Oc1ccccc1CCC(=O)N1CCNC[C@H]1Cc1ccccc1` [Example 67, (R)-methyl 3-(2-(2-(3-(2-benzylpiperazin-1-yl)-3-oxopropyl)phenoxy)phenyl)propanoate], under 500 nM. Still for that read-out and setting: in the case of `CC(=O)NCCc1ccccc1Cc1ccccc1CCC(=O)N1CCNC[C@H]1Cc1ccc(OCC(N)=O)cc1` [Example 89, (R)-2-(4-((1-(3-(2-(2-(2-acetamidoethyl)benzyl)phenyl)propanoyl)piperazin-2-yl)methyl)phenoxy)acetamide] it was under 500 nM; in that of `CC(=O)NCCc1ccccc1Cc1ccccc1CCC(=O)N1CCNC[C@H]1Cc1ccc(OCC(=O)O)cc1` [Example 90, (R)-2-(4-((1-(3-(2-(2-(2-acetamidoethyl)benzyl)phenyl)propanoyl)piperazin-2-yl)methyl)phenoxy)acetic acid], under 500 nM; in that of `O=C(CCCc1ccccc1)N1CCNC[C@H]1Cc1ccccc1` [Example 19, (R)-1-(2-Benzylpiperazin-1-yl)-4-phenylbutan-1-one], 5000 to 50000 nM.

For `O=C(CCc1ccccc1Oc1cccc(CO)c1)N1CCNC[C@H]1Cc1ccccc1` [Example 35, (R)-1-(2-Benzylpiperazin-1-yl)-3-(2-(3-(hydroxymethyl)phenoxy)phenyl)propan-1-one], the IC50 was 500 to 5000 nM.

Consider `O=C(Cc1ccccc1-c1ccccc1Cl)N1CCNC[C@H]1Cc1ccccc1` [Example 11, 1-((R)-2-Benzylpiperazin-1-yl)-2-(2′-chlorobiphenyl-2-yl)ethanone], for which the IC50 lay in the range of 500 to 5000 nM. On to `O=C(CCc1ccccc1)N1CCNC[C@H]1Cc1ccccc1` [Example 1, (R)-1-(2-Benzylpiperazin-1-yl)-3-phenylpropan-1-one], for which the IC50 is 5000 to 50000 nM. On the same count and under the same terms, in the case of `CCC(=O)NCCc1ccccc1Oc1ccccc1CCC(=O)N1CCNC[C@H]1Cc1ccccc1` [Example 78, (R)—N-(2-(2-(3-(2-benzylpiperazin-1-yl)-3-oxopropyl)phenoxy)phenethyl)propionamide] it was under 500 nM; in that of `CC(=O)NCc1ccc(C)nc1Oc1cc(C)ccc1CCC(=O)N1CCNC[C@H]1Cc1ccccc1` [Example 44, (R)—N-((2-(2-(3-(2-benzylpiperazin-1-yl)-3-oxopropyl)-5-methylphenoxy)-6-methylpyridin-3-yl)methyl)acetamide], 500 to 5000 nM; in that of `CC(=O)NCCCc1ccccc1Oc1ccccc1CCC(=O)N1CCNC[C@H]1Cc1ccccc1` [Example 48, (R)—N-(3-(2-(2-(3-(2-benzylpiperazin-1-yl)-3-oxopropyl)phenoxy)-phenyl)propyl)acetamide], 500 to 5000 nM. For the molecule `N#CCCc1ccccc1Oc1ccccc1CCC(=O)N1CCNC[C@H]1Cc1ccccc1` [Example 66, (R)-3-(2-(2-(3-(2-benzylpiperazin-1-yl)-3-oxopropyl)phenoxy)phenyl)propanenitrile], the IC50 is under 500 nM.

In the case of `O=C(CCc1ccccc1Oc1ccccc1)N1CCNC[C@H]1Cc1ccccc1` [Example 7, (R)-1-(2-Benzylpiperazin-1-yl)-3-(2-phenoxyphenyl)propan-1-one], the IC50 is under 500 nM. Same read-out and setting: in the case of `CC(=O)NCCc1ccccc1Oc1ccccc1CCC(=O)N1CCNC[C@H]1Cc1ccc(O)cc1` [Example 79, (R)—N-(2-(2-(3-(2-(4-hydroxybenzyl)piperazin-1-yl)-3-oxopropyl)phenoxy)phenethyl)acetamide] it was under 500 nM. Regarding `CCNC(=O)c1cccc(Oc2ccccc2CCC(=O)N2CCNC[C@H]2Cc2ccccc2)c1` [Example 34, (R)-3-(2-(3-(2-Benzylpiperazin-1-yl)-3-oxopropyl)phenoxy)-N-ethylbenzamide], the IC50 lay in the range of 500 to 5000 nM. On the same count and under the same terms, in the case of `CC(=O)NCCc1ccccc1Oc1cc(C)ccc1CCC(=O)N1CCNC[C@H]1Cc1ccccc1` [Example 28, (R)—N-(2-(2-(3-(2-Benzylpiperazin-1-yl)-3-oxopropyl)-5-methylphenoxy)phenethyl)acetamide] it was under 500 nM; in that of `Cc1cccc(Oc2ccccc2CCC(=O)N2CCNC[C@H]2Cc2ccccc2)c1` [Example 23, (R)-1-(2-benzylpiperazin-1-yl)-3-(2-(m-tolyloxy)phenyl)propan-1-one], under 500 nM; in that of `CC1(C)CC(CC(=O)N2CCNC[C@H]2Cc2ccccc2)(c2ccccc2)CCO1` (stereo partly drawn) [Example 20, 1-((R)-2-Benzylpiperazin-1-yl)-2-(2,2-dimethyl-4-phenyltetrahydro-2H-pyran-4-yl)ethanone], 500 to 5000 nM. In the case of `O=C(CCc1ccccc1Oc1ccccc1)N1CCNC[C@H]1Cc1ccc(OCc2nnn[nH]2)cc1` [Example 85, (R)-1-(2-(4-((1H-tetrazol-5-yl)methoxy)benzyl)piperazin-1-yl)-3-(2-phenoxyphenyl)propan-1-one], the IC50 was under 500 nM.
